≈ marks a conversion by molar mass, not a printed value. Blank lines part the entries; values can stand above or below the compound they belong to.
How the values were obtained:
[1] = LogD distribution coefficient between octanol and PBS at pH7.4; format: physicochemical; details: pH 7.4, read-out: LogD7.4
[2] = biological target: T1, Substance-P receptor (Homo sapiens, UniProt P25103); test: Displacement of [3H]-substance P from human NK1 receptor expressed in CHO cells; format: cell-based
[3] = Solubility was measured; format: physicochemical
[4] = biological target: T1, Substance-P receptor; test: Displacement of [3H]-substance P from human NK1 receptor expressed in CHO cells, at 10e-5 M; format: cell-based
[5] = pKa value was evaluated; format: physicochemical
[6] = test system: Cavia porcellus; test: Inhibition of SP-induced pulmonary edema in guinea-pig 30 min after oral administration at a dose of 10 mg/kg; format: functional; details: 0.5 h
[7] = test system: Cavia porcellus; test: Inhibition of SP-induced pulmonary edema in guinea-pig 240 min after oral administration at a dose of 10 mg/kg; format: functional; details: 4 h
[8] = species on record: Rattus norvegicus; test: Inhibition of contraction induced by 100 mM KCl in isolated rat aorta; format: functional
[9] = test system: Caco-2; test: Caco-2 permeability was measured; format: functional, cell-based; details: Homo sapiens
[10] = test system: Cavia porcellus; test: Inhibition of SP-induced pulmonary edema in guinea-pig 120 min after oral administration at a dose of 10 mg/kg; format: functional; details: 2 h
[11] = test system: Cavia porcellus; test: Inhibition of SP-induced pulmonary edema in guinea-pig 60 min after oral administration at a dose of 10 mg/kg; format: functional; details: 1 h
[12] = test system: Cavia porcellus; test: Inhibition of SP-induced pulmonary edema in guinea-pig 30 min after oral administration at a dose of 1 mg/kg; format: functional; details: 0.5 h
[13] = test system: Cavia porcellus; test: Inhibition of SP-induced pulmonary edema in guinea-pig 60 min after oral administration at a dose of 1 mg/kg; format: functional; details: 1 h
[14] = test system: Cavia porcellus; test: Inhibition of SP-induced pulmonary edema in guinea-pig 240 min after oral administration at a dose of 1 mg/kg; format: functional; details: 4 h

T1 sequence (P25103 whole entry): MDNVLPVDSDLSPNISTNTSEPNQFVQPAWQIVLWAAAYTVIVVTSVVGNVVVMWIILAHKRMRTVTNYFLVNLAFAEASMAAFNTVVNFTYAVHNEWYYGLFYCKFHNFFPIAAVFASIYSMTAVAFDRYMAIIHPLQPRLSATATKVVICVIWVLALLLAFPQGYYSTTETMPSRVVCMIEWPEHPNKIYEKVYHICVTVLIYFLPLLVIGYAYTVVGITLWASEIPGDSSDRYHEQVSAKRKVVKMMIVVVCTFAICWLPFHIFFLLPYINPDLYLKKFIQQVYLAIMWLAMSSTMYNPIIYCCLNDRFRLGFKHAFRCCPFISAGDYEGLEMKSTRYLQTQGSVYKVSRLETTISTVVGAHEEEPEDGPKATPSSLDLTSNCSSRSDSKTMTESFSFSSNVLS

SMILES: COc1cc(CN2CCN(C(COCc3cc(C(F)(F)F)cc(C(F)(F)F)c3)c3ccccc3)C(Cc3ccccc3)C2)cc(OC)c1OC (stereo not drawn)
logD [1]: 5.2
Ki [2]: 251 nM
solubility [3]: 0.6 µg/mL (≈ 0.854 µM)

SMILES: Clc1ccc(COCC(c2ccccc2)N2CCNCC2)cc1Cl (stereo not drawn)
Ki [2]: 100 nM

SMILES: COC(=O)CN1CCN(C(COCc2cc(C(F)(F)F)cc(C(F)(F)F)c2)c2ccccc2)CC1 (stereo not drawn)
Ki [2]: 39.8 nM

SMILES: C[C@H](OC[C@@H](c1ccccc1)N1CCN(CC(=O)O)CC1)c1cc(C(F)(F)F)cc(C(F)(F)F)c1
Ki [2]: 3.16 nM

SMILES: FC(F)(F)c1cc(COCC(c2cccs2)N2CCNCC2)cc(C(F)(F)F)c1 (stereo not drawn)
Ki [2]: 7.94 nM

SMILES: FC(F)(F)c1cc(COCC(c2ccccc2)N2CCN(Cc3ccccn3)CC2)cc(C(F)(F)F)c1 (stereo not drawn)
Ki [2]: 2 nM

SMILES: C[C@@H](OC[C@H](c1ccccc1)N1CCN(CC(=O)O)CC1)c1cc(C(F)(F)F)cc(C(F)(F)F)c1
inhibition [4]: < 20%

SMILES: FC(F)(F)c1cc(COCC(c2ccccc2)N2CCN(Cc3nn[nH]n3)CC2)cc(C(F)(F)F)c1 (stereo not drawn)
Ki [2]: 63.1 nM

SMILES: NC(=O)COCCN1CCN(C(COCc2cc(C(F)(F)F)cc(C(F)(F)F)c2)c2ccccc2)CC1 (stereo not drawn)
Ki [2]: 3.16 nM
pKa [5]: 7.4

SMILES: COc1ccccc1C(COCc1cc(C(F)(F)F)cc(C(F)(F)F)c1)N1CCNCC1 (stereo not drawn)
Ki [2]: 6.31 nM

SMILES: CCOC(=O)N1CCN(C(COCc2cc(C(F)(F)F)cc(C(F)(F)F)c2)c2ccccc2)CC1 (stereo not drawn)
Ki [2]: 63.1 nM

SMILES: N#CCN1CCN(C(COCc2cc(C(F)(F)F)cc(C(F)(F)F)c2)c2ccccc2)CC1 (stereo not drawn)
Ki [2]: 7.94 nM

SMILES: O=C(O)CN1CCN(C(COCc2cc(C(F)(F)F)cc(C(F)(F)F)c2)c2ccccc2)CC1 (stereo not drawn)
inhibition in vivo at 10 mg/kg [6]: 84%
logD [1]: 2.35
Ki [2]: 15.8 nM
inhibition in vivo at 10 mg/kg [7]: 53%
pD2 [8]: <4
Papps [9]: 9.6 ×10⁻⁶ cm/s
inhibition in vivo at 10 mg/kg [10]: 68%
solubility [3]: 1300 µg/mL (≈ 2650 µM)
inhibition in vivo at 10 mg/kg [11]: 76%

SMILES: NC(=O)CN1CCN([C@H](COCc2cc(C(F)(F)F)cc(C(F)(F)F)c2)c2ccccc2)CC1
Ki [2]: 7.94 nM
pKa [5]: 6.2

SMILES: O=C(O)CCCC(=O)N1CCN(C(COCc2cc(C(F)(F)F)cc(C(F)(F)F)c2)c2ccccc2)CC1 (stereo not drawn)
inhibition [4]: < 20%

SMILES: C[C@@H](OC[C@H](c1ccccc1)N1CCN(CCOCC(=O)O)CC1)c1cc(C(F)(F)F)cc(C(F)(F)F)c1
inhibition [4]: < 20%

SMILES: FC(F)(F)c1cc(COCC(c2ccccc2)N2CCN(CCCCc3nnn[nH]3)CC2)cc(C(F)(F)F)c1 (stereo not drawn)
inhibition in vivo at 10 mg/kg [6]: 65%
inhibition in vivo at 10 mg/kg [7]: 20%
pD2 [8]: <4
Papps [9]: 2.6 ×10⁻⁶ cm/s
inhibition in vivo at 10 mg/kg [10]: 65%
inhibition in vivo at 10 mg/kg [11]: 99%

SMILES: C[C@@H](OC[C@@H](c1ccccc1)N1CCN(CC(=O)O)CC1)c1cc(C(F)(F)F)cc(C(F)(F)F)c1
inhibition [4]: < 20%

SMILES: FC(F)(F)c1cc(COCC(c2ccccc2)N2CCN(CCN3CCOCC3)CC2)cc(C(F)(F)F)c1 (stereo not drawn)
Ki [2]: 15.8 nM

SMILES: Oc1n[nH]c(CN2CCN(C(COCc3cc(C(F)(F)F)cc(C(F)(F)F)c3)c3ccccc3)CC2)n1 (stereo not drawn)
Ki [2]: 15.8 nM

SMILES: FC(F)(F)c1cc(COCC(c2ccc(Cl)c(Cl)c2)N2CCNCC2)cc(C(F)(F)F)c1 (stereo not drawn)
Ki [2]: 6.31 nM

SMILES: O=C(O)CCCCN1CCN(C(COCc2cc(C(F)(F)F)cc(C(F)(F)F)c2)c2ccccc2)CC1 (stereo not drawn)
Ki [2]: 10 nM

SMILES: FC(F)(F)c1cc(COCC(c2cccc3ccccc23)N2CCNCC2)cc(C(F)(F)F)c1 (stereo not drawn)
Ki [2]: 1.58 nM

SMILES: O=C(O)COCCN1CCN(C(COCc2cc(C(F)(F)F)cc(C(F)(F)F)c2)c2ccccc2)CC1 (stereo not drawn)
inhibition in vivo at 10 mg/kg [6]: 53%
logD [1]: 2.17
Ki [2]: 15.8 nM
inhibition in vivo at 10 mg/kg [7]: 29%
pD2 [8]: <4
Papps [9]: 4.2 ×10⁻⁶ cm/s
inhibition in vivo at 10 mg/kg [10]: 54%
solubility [3]: > 2000 µg/mL
inhibition in vivo at 10 mg/kg [11]: 61%

SMILES: C[C@H](OC[C@H](c1ccccc1)N1CCN(CC(=O)O)CC1)c1cc(C(F)(F)F)cc(C(F)(F)F)c1
Ki [2]: 1.26 nM

SMILES: Fc1cccc(C(COCc2cc(C(F)(F)F)cc(C(F)(F)F)c2)N2CCNCC2)c1F (stereo not drawn)
Ki [2]: 3.16 nM

SMILES: NC(=O)N1CCN(C(COCc2cc(C(F)(F)F)cc(C(F)(F)F)c2)c2ccccc2)CC1 (stereo not drawn)
inhibition in vivo at 10 mg/kg [6]: 15%
Ki [2]: 20 nM
inhibition in vivo at 10 mg/kg [10]: 26%
inhibition in vivo at 10 mg/kg [11]: 47%

SMILES: C[C@@H](OC[C@@H](c1ccccc1)N1CCN(CCOCC(=O)O)CC1)c1cc(C(F)(F)F)cc(C(F)(F)F)c1
inhibition [4]: < 20%

SMILES: C[C@H](OC[C@H](c1ccccc1)N1CCN(CCOCC(=O)O)CC1)c1cc(C(F)(F)F)cc(C(F)(F)F)c1
logD [1]: 2.64
inhibition in vivo at 1 mg/kg [12]: 77%
inhibition in vivo at 1 mg/kg [13]: 75%
pD2 [8]: <4
inhibition in vivo at 1 mg/kg [14]: 70%
Papps [9]: 8.7 ×10⁻⁶ cm/s
solubility [3]: > 2000 µg/mL

SMILES: COc1ccc(C(COCc2cc(C(F)(F)F)cc(C(F)(F)F)c2)N2CCNCC2)cc1 (stereo not drawn)
Ki [2]: 50.1 nM

SMILES: CCCCN1CCN(C(COCc2cc(C(F)(F)F)cc(C(F)(F)F)c2)c2ccccc2)CC1 (stereo not drawn)
inhibition in vivo at 10 mg/kg [6]: 62%
logD [1]: 4.09
Ki [2]: 2.51 nM
inhibition in vivo at 10 mg/kg [7]: 58%
pD2 [8]: 4.6
Papps [9]: 5.2 ×10⁻⁶ cm/s
solubility [3]: 1 µg/mL (≈ 2.05 µM)

SMILES: NC(=O)CN1CCN([C@@H](COCc2cc(C(F)(F)F)cc(C(F)(F)F)c2)c2ccccc2)CC1
logD [1]: 3.26
Ki [2]: 10 nM
pD2 [8]: 4.27
Papps [9]: 7.9 ×10⁻⁶ cm/s
solubility [3]: 2 µg/mL (≈ 4.09 µM)
pKa [5]: 6.2

SMILES: FC(F)(F)c1cc(COCC(c2ccco2)N2CCNCC2)cc(C(F)(F)F)c1 (stereo not drawn)
Ki [2]: 158 nM

SMILES: FC(F)(F)c1cc(COCC(c2ccccc2)N2CCN(CCCCc3nn[nH]n3)CC2)cc(C(F)(F)F)c1 (stereo not drawn)
logD [1]: 2.71
Ki [2]: 6.31 nM
solubility [3]: 200 µg/mL (≈ 359 µM)

Further lines, with some results ahead:

inhibition [4]: 50%
SMILES: Clc1ccccc1COCC(c1ccccc1)N1CCNCC1 (stereo not drawn)

Ki [2]: 126 nM
SMILES: COc1cc(COCC(c2ccccc2)N2CCNCC2)cc(OC)c1OC (stereo not drawn)

Ki [2]: 5.01 nM
SMILES: Brc1cc(Br)cc(COCC(c2ccccc2)N2CCNCC2)c1 (stereo not drawn)

Ki [2]: 5.01 nM
SMILES: Fc1ccccc1C(COCc1cc(C(F)(F)F)cc(C(F)(F)F)c1)N1CCNCC1 (stereo not drawn)

Ki [2]: 2 nM
SMILES: Fc1cccc(C(COCc2cc(C(F)(F)F)cc(C(F)(F)F)c2)N2CCNCC2)c1 (stereo not drawn)

Ki [2]: 12.6 nM
SMILES: Fc1cc(COCC(c2ccccc2)N2CCNCC2)cc(C(F)(F)F)c1 (stereo not drawn)

Ki [2]: 3.16 nM
SMILES: Cc1cccc(C(COCc2cc(C(F)(F)F)cc(C(F)(F)F)c2)N2CCNCC2)c1 (stereo not drawn)

Ki [2]: 7.94 nM
SMILES: COc1c(Br)cc(Br)cc1COCC(c1ccccc1)N1CCNCC1 (stereo not drawn)

Ki [2]: 1.58 nM
SMILES: FC(F)(F)c1cc(COCC(c2ccccc2Cl)N2CCNCC2)cc(C(F)(F)F)c1 (stereo not drawn)

inhibition [4]: 50%
SMILES: FC(F)(F)Oc1ccccc1COCC(c1ccccc1)N1CCNCC1 (stereo not drawn)

Ki [2]: 1.58 nM
SMILES: FC(F)(F)c1cc(COCC(c2cccc(Cl)c2)N2CCNCC2)cc(C(F)(F)F)c1 (stereo not drawn)

Ki [2]: 200 nM
SMILES: Fc1cc(F)cc(COCC(c2ccccc2)N2CCNCC2)c1 (stereo not drawn)

Ki [2]: 1 nM
SMILES: COc1cccc(C(COCc2cc(C(F)(F)F)cc(C(F)(F)F)c2)N2CCNCC2)c1 (stereo not drawn)

Ki [2]: 31.6 nM
SMILES: FC(F)(F)c1cc(COCC(c2ccc3ccccc3c2)N2CCNCC2)cc(C(F)(F)F)c1 (stereo not drawn)

Ki [2]: 1.58 nM
SMILES: CN1CCN(C(COCc2cc(C(F)(F)F)cc(C(F)(F)F)c2)c2ccccc2)CC1 (stereo not drawn)

Ki [2]: 15.8 nM
SMILES: FC(F)(F)c1ccc(COCC(c2ccccc2)N2CCNCC2)c(C(F)(F)F)c1 (stereo not drawn)

Ki [2]: 25.1 nM
SMILES: Cc1cc(C)cc(COCC(c2ccccc2)N2CCNCC2)c1 (stereo not drawn)

Ki [2]: 1 nM
SMILES: Cc1ccccc1C(COCc1cc(C(F)(F)F)cc(C(F)(F)F)c1)N1CCNCC1 (stereo not drawn)

inhibition [4]: < 20%
SMILES: c1ccc(COCC(c2ccccc2)N2CCNCC2)cc1 (stereo not drawn)

Ki [2]: 398 nM
SMILES: Clc1cccc(COCC(c2ccccc2)N2CCNCC2)c1 (stereo not drawn)

inhibition [4]: < 20%
SMILES: COc1ccccc1COCC(c1ccccc1)N1CCNCC1 (stereo not drawn)

logD [1]: 2.41
solubility [3]: 200 µg/mL (≈ 463 µM)
SMILES: FC(F)(F)c1cc(COCC(c2ccccc2)N2CCNCC2)cc(C(F)(F)F)c1 (stereo not drawn)
pD2 [8]: 5.38
Papps [9]: 2.1 ×10⁻⁶ cm/s

Ki [2]: 3.16 nM
SMILES: Clc1cc(Cl)cc(COCC(c2ccccc2)N2CCNCC2)c1 (stereo not drawn)

Ki [2]: 79.4 nM
SMILES: Fc1ccc(C(COCc2cc(C(F)(F)F)cc(C(F)(F)F)c2)N2CCNCC2)cc1 (stereo not drawn)

— ChEMBL document CHEMBL1136550, “Discovery of orally bioavailable NK1 receptor antagonists” (Bioorg Med Chem Lett, 2003)
